Test results as given in US6706663B2, “Herbicidal 3-heterocyclic substituted benzisothiazole and benzisoxazole compounds” (Wyeth, priority 2000, dated 2004).

Columns and labels:
[1] = tested on: ABUTH (Abutilon theophrasti); assay: Preemergence herbicidal evaluation; type: in vivo, Medic.; conditions: preemergence, rated 4-5 weeks after treatment
[2] = tested on: IPOHE (Ipomoea hederacea); assay: Preemergence herbicidal evaluation; type: in vivo, (L.) Jacq.; conditions: preemergence, rated 4-5 weeks after treatment
ORYSAT (Rice, Tebonnet) [3] = assay: Postemergence herbicidal evaluation; type: in vivo, Oryza sativa, (L.) Tebonnet
In short: (§1)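 Visual 0–9 injury scores versus control plants, covering stand, vigour, malformation, size, chlorosis and general appearance, taken four to five weeks post-spray and averaged over replicate tests. Plants were sprayed at roughly two weeks old and held on greenhouse benches.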

CYPIR (Cyperus iria) = assay: Flooded paddy, preemergence weed control; type: in vivo; conditions: rated 3-4 weeks after treatment, 0-9 rating scale
In short: (§2)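 Plants were established from seed or propagating organs in flooded silt loam, with the water surface held 1.5 to 3 cm above the soil for the entire experiment. Injury was assessed visually against a control and given a 0-9 score.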

[4] = tested on: GLXMAW (Soybean, Williams); assay: Preemergence herbicidal evaluation; type: in vivo, Glycine max, (L.) Merr. cv Williams; conditions: preemergence, rated 4-5 weeks after treatment
ORYSAT (Rice, Tebonnet) [5] = assay: Flooded paddy, post-transplant rice tolerance; type: in vivo, Oryza sativa, (L.) Tebonnet; conditions: flooded paddy, post-transplant rice, rated 3-4 weeks after treatment, 0-9 rating scale
In short: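 Seedlings aged ten days are transplanted in pairs into undrained pots of silt loam, which are then flooded to a depth of 1.5 to 3 cm. After herbicide application the pots are kept in a greenhouse with the flood maintained. Plants are rated 0-9 by visual comparison with controls.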

[6] = tested on: MOOVA (Monochoria vaginalis); assay: Flooded paddy, preemergence weed control; type: in vivo, Presl.; conditions: rated 3-4 weeks after treatment, 0-9 rating scale
In short: as §2

[7] = tested on: IPOHE (Ipomoea hederacea); assay: Postemergence herbicidal evaluation; type: in vivo, (L.) Jacq.
In short: as §1

[8] = tested on: ABUTH (Abutilon theophrasti); assay: Postemergence herbicidal evaluation; type: in vivo, Medic.
In short: as §1

[9] = tested on: GLXMAW (Soybean, Williams); assay: Postemergence herbicidal evaluation; type: in vivo, Glycine max, (L.) Merr. cv Williams
In short: as §1

SETVI (Setaria viridis) = assay: Preemergence herbicidal evaluation; type: in vivo, (L.) Beau; conditions: preemergence, rated 4-5 weeks after treatment
In short: (§3)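 Visual 0-9 rating versus untreated control, taken four to five weeks post-treatment, scoring stand, vigor, malformation, size, chlorosis and overall appearance. Compound applied as aqueous acetone spray to freshly seeded soil cups, then kept under standard greenhouse care.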

[10] = tested on: ECHCG (Echinochloa crus-galli); assay: Preemergence herbicidal evaluation; type: in vivo, (L.) Beau; conditions: preemergence, rated 4-5 weeks after treatment
In short: as §3

[11] = tested on: CASOB (Cassia obtusifolia); assay: Postemergence herbicidal evaluation; type: in vivo, L.
In short: as §1

[12] = tested on: AMBEL (Ambrosia artemisifolia); assay: Postemergence herbicidal evaluation; type: in vivo, L.
In short: as §1

[13] = tested on: CHEAL (Chenopodium album); assay: Postemergence herbicidal evaluation; type: in vivo, L.
In short: as §1

ZEAMX (Corn, Field) = assay: Preemergence herbicidal evaluation; type: in vivo, Zea mays, L.; conditions: preemergence, rated 4-5 weeks after treatment
[14] = tested on: TRZAWR (Wheat, Winter, cv Riband); assay: Preemergence herbicidal evaluation; type: in vivo, Triticum aestivum; conditions: preemergence, rated 4-5 weeks after treatment
In short: as §3

[15] = tested on: CASOB (Cassia obtusifolia); assay: Preemergence herbicidal evaluation; type: in vivo, L.; conditions: preemergence, rated 4-5 weeks after treatment
In short: as §3

[16] = tested on: AMBEL (Ambrosia artemisifolia); assay: Preemergence herbicidal evaluation; type: in vivo, L.; conditions: preemergence, rated 4-5 weeks after treatment
In short: as §3

[17] = tested on: CHEAL (Chenopodium album); assay: Preemergence herbicidal evaluation; type: in vivo, L.; conditions: preemergence, rated 4-5 weeks after treatment
In short: as §3

Q: Which results are given for `COC(=O)C(C)Oc1ccsc1-c1nsc2ccc(-n3c(=O)cc(C(F)(F)F)n(C)c3=O)cc12` (stereo not drawn) [Compound 23, methyl 2-[(2-[5-[3,6-dihydro-3-methyl-2,6-dioxo-4-(trifluoromethyl)-1(2H)-pyrimidinyl]-1,2-benzisothiazol-3-yl]-3-thienyl]oxy]propionate]?
A: ABUTH preemergence herbicidal rating ([1]; Rate 0.0620 kg/ha): 0.0; ABUTH preemergence herbicidal rating ([1]; Rate 0.1250 kg/ha): 0.0; ABUTH preemergence herbicidal rating ([1]; Rate 0.2500 kg/ha): 1.0; IPOHE preemergence herbicidal rating ([2]; Rate 0.0620 kg/ha): 0.0; IPOHE preemergence herbicidal rating ([2]; Rate 0.1250 kg/ha): 0.0; IPOHE preemergence herbicidal rating ([2]; Rate 0.2500 kg/ha): 0.0; Postemergence herbicidal rating, ORYSAT (ORYSAT (Rice, Tebonnet) [3]; rate 0.0320 kg/ha): 2.5; Postemergence herbicidal rating, ORYSAT (ORYSAT (Rice, Tebonnet) [3]; rate 0.0620 kg/ha): 3.5; Postemergence herbicidal rating, ORYSAT (ORYSAT (Rice, Tebonnet) [3]; rate 0.1250 kg/ha): 5.0; herbicidal rating, CYPIR (CYPIR (Cyperus iria); rate 0.0320 kg/ha): 9.0; herbicidal rating, CYPIR (CYPIR (Cyperus iria); rate 0.1250 kg/ha): 9.0; GLXMAW preemergence herbicidal rating ([4]; Rate 0.0620 kg/ha): 0.0; GLXMAW preemergence herbicidal rating ([4]; Rate 0.1250 kg/ha): 0.0; GLXMAW preemergence herbicidal rating ([4]; Rate 0.2500 kg/ha): 0.0; herbicidal rating, ORYSAT (rice tolerance) (ORYSAT (Rice, Tebonnet) [5]; rate 0.0320 kg/ha): 0.0; herbicidal rating, ORYSAT (rice tolerance) (ORYSAT (Rice, Tebonnet) [5]; rate 0.1250 kg/ha): 3.0; herbicidal rating, MOOVA ([6]; rate 0.0320 kg/ha): 9.0; herbicidal rating, MOOVA ([6]; rate 0.1250 kg/ha): 9.0; Postemergence herbicidal rating, IPOHE ([7]; rate 0.0320 kg/ha): 6.0; Postemergence herbicidal rating, IPOHE ([7]; rate 0.0620 kg/ha): 5.0; Postemergence herbicidal rating, IPOHE ([7]; rate 0.1250 kg/ha): 9.0; Postemergence herbicidal rating, ABUTH ([8]; rate 0.0320 kg/ha): 9.0; Postemergence herbicidal rating, ABUTH ([8]; rate 0.0620 kg/ha): 9.0; Postemergence herbicidal rating, ABUTH ([8]; rate 0.1250 kg/ha): 9.0; Postemergence herbicidal rating, GLXMAW ([9]; rate 0.0320 kg/ha): 4.0; Postemergence herbicidal rating, GLXMAW ([9]; rate 0.0620 kg/ha): 5.0; Postemergence herbicidal rating, GLXMAW ([9]; rate 0.1250 kg/ha): 5.0; SETVI preemergence herbicidal rating (SETVI (Setaria viridis); Rate 0.0620 kg/ha): 0.0; SETVI preemergence herbicidal rating (SETVI (Setaria viridis); Rate 0.1250 kg/ha): 0.0; SETVI preemergence herbicidal rating (SETVI (Setaria viridis); Rate 0.2500 kg/ha): 1.0; ECHCG preemergence herbicidal rating ([10]; Rate 0.0620 kg/ha): 0.0; ECHCG preemergence herbicidal rating ([10]; Rate 0.1250 kg/ha): 0.0; ECHCG preemergence herbicidal rating ([10]; Rate 0.2500 kg/ha): 1.0; Postemergence herbicidal rating, CASOB ([11]; rate 0.0320 kg/ha): 0.0; Postemergence herbicidal rating, CASOB ([11]; rate 0.0620 kg/ha): 0.0; Postemergence herbicidal rating, CASOB ([11]; rate 0.1250 kg/ha): 2.0; Postemergence herbicidal rating, AMBEL ([12]; rate 0.0320 kg/ha): 2.0; Postemergence herbicidal rating, AMBEL ([12]; rate 0.0620 kg/ha): 6.0; Postemergence herbicidal rating, AMBEL ([12]; rate 0.1250 kg/ha): 9.0; Postemergence herbicidal rating, CHEAL ([13]; rate 0.0320 kg/ha): 2.0; Postemergence herbicidal rating, CHEAL ([13]; rate 0.0620 kg/ha): 4.0; Postemergence herbicidal rating, CHEAL ([13]; rate 0.1250 kg/ha): 6.0; ZEAMX preemergence herbicidal rating (ZEAMX (Corn, Field); Rate 0.0620 kg/ha): 0.0; ZEAMX preemergence herbicidal rating (ZEAMX (Corn, Field); Rate 0.1250 kg/ha): 0.0; ZEAMX preemergence herbicidal rating (ZEAMX (Corn, Field); Rate 0.2500 kg/ha): 0.0; TRZAWR preemergence herbicidal rating ([14]; Rate 0.0620 kg/ha): 0.0; TRZAWR preemergence herbicidal rating ([14]; Rate 0.1250 kg/ha): 0.0; TRZAWR preemergence herbicidal rating ([14]; Rate 0.2500 kg/ha): 0.0; CASOB preemergence herbicidal rating ([15]; Rate 0.0620 kg/ha): 0.0; CASOB preemergence herbicidal rating ([15]; Rate 0.1250 kg/ha): 1.0; CASOB preemergence herbicidal rating ([15]; Rate 0.2500 kg/ha): 6.0; AMBEL preemergence herbicidal rating ([16]; Rate 0.0620 kg/ha): 0.0; AMBEL preemergence herbicidal rating ([16]; Rate 0.1250 kg/ha): 9.0; AMBEL preemergence herbicidal rating ([16]; Rate 0.2500 kg/ha): 9.0; CHEAL preemergence herbicidal rating ([17]; Rate 0.0620 kg/ha): 9.0; CHEAL preemergence herbicidal rating ([17]; Rate 0.1250 kg/ha): 0.0; CHEAL preemergence herbicidal rating ([17]; Rate 0.2500 kg/ha): 4.0
